Consider one molecule from publication PMC9405973, “Altered Conformational Landscape upon Sensing Guanine Nucleotides in a Disease Mutant of Elongation Factor-like 1 (EFL1) GTPase” (Biomolecules, 2022).

In this test the target is T1, Efl1 R1086Q in complex with Sdo1 and 60S subunits (Saccharomyces cerevisiae, UniProt P53893, R1086Q).
T1 construct: made in house; host or cells: Efl1: Saccharomyces cerevisiae; Sdo1: Escherichia coli C41; 60S subunits purified from S. cerevisiae strain JD1370
T1 sequence (P53893 1-1110 R1086Q): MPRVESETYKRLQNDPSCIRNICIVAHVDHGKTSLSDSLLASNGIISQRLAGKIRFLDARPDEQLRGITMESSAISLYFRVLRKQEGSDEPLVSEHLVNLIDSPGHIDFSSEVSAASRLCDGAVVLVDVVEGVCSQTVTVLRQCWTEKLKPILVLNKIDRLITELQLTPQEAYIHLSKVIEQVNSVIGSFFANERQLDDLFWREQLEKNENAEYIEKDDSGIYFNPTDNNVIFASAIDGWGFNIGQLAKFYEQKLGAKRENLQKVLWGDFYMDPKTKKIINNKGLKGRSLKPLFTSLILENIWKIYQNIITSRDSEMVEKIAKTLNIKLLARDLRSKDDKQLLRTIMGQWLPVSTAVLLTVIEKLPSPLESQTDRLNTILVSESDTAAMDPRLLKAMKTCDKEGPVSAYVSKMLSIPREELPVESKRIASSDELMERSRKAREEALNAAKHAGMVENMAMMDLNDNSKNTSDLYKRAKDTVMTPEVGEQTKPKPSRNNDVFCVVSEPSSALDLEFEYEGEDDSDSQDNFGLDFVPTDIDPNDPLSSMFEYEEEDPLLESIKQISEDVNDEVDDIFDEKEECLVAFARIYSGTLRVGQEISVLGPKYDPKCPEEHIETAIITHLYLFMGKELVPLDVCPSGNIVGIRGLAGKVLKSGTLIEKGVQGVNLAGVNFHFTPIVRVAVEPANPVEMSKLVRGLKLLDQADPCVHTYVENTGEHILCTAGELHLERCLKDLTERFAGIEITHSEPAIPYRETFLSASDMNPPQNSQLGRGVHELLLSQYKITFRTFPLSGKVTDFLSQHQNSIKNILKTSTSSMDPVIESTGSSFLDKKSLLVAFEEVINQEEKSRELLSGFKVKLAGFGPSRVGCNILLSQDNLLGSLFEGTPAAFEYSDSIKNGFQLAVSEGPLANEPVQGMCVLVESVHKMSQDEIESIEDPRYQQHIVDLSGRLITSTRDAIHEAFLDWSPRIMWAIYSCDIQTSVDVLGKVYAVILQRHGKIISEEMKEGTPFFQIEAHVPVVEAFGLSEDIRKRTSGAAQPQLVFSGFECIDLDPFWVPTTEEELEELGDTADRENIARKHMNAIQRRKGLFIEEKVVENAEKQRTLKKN
T1 sequence (Q07953 1-250 partner): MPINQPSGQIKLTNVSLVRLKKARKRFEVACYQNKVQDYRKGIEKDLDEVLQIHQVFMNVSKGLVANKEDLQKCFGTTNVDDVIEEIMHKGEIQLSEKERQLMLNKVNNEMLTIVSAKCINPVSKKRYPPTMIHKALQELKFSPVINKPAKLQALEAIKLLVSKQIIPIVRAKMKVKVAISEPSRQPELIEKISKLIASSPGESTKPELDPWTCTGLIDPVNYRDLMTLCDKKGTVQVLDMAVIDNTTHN
Description: Steady state fluorescence binding of mant-GTP to Efl1 R1086Q in complex with Sdo1 and 60S subunits. To be noted: 25 °C, one-binding-site model; read-out: dissociation constant (Kd). The method, then:
We measured the binding of different Efl1 constructs present in complex with Sdo1 and 60S subunits to the fluorescence GTP analogue, mant-GTP, by following the increase in the fluorescence signal after excitation at 355 nm. Fluorescence intensities were plotted as a function of increasing nucleotide concentrations, and the dissociation constant (Kd) was calculated by fitting the data to a one-binding-site model (Supplementary Figure S1B).
Hydrolysis of GTP was measured using the Enzchek Phosphate Assay kit (Molecular Probes) as described by Webb. Standard reactions consisted of 100 µL containing 6 µM of Efl1 R1086Q and Efl1 L910K, 0.3 mM MESG, 1.0 U purine nucleoside phosphorylase (PNP) and the indicated amounts of GTP. […]
Reactions were initiated and the GTPase was added after 3 min. Time courses were followed by recording the change in absorbance at 360 nm in a Cary 60 UV -Vis spectrophotometer (Agilent Technologies). Background absorbance was recorded prior to the addition of the GTPase and subtracted from the sample signals. The slope of the measured time courses corresponded to the GTP hydrolysis rate. […] Data were analysed by nonlinear regression to the M ichaelis-Menten equation with the program Origin Version 5.0 (OriginLab, Co., Northampton, MA). […]
Steady state fluorescence measurements […]
Maximum emission at 440 nm was replotted as a function of nucleotide concentration and analysed

By Kd is commonly meant the free concentration of one partner at which half of the binding sites on the other are occupied at equilibrium, for simple one-to-one binding. For the molecule `CNc1ccccc1C(=O)O[C@H]1[C@@H](O)[C@H](n2cnc3c(=O)[nH]c(N)nc32)O[C@@H]1COP(=O)(O)OP(=O)(O)OP(=O)(O)O` [mant-GTP], the Kd was found to be 32 µM.
